PubChem BioAssay (NCI)
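Compound exposure: 48 hours, 5 concentrations, 96-well plates. The concentration for full growth arrest is given as TGI.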

Legend:
Experiment in all cases: NCI anticancer screen, dose series, 48 h
786-0 renal = system: 786-0 renal
A498 renal = system: A498 renal
A549 NSCLC = system: A549 NSCLC
ACHN renal = system: ACHN renal
BT-549 breast = system: BT-549 breast
CAKI-1 renal = system: CAKI-1 renal
CCRF-CEM leukemia = system: CCRF-CEM leukemia
COLO 205 colon = system: COLO 205 colon
DU-145 prostate = system: DU-145 prostate
EKVX NSCLC = system: EKVX NSCLC
HCC-2998 colon = system: HCC-2998 colon
HCT-116 colon = system: HCT-116 colon
HCT-15 colon = system: HCT-15 colon
HL-60(TB) leukemia = system: HL-60(TB) leukemia
HOP-62 NSCLC = system: HOP-62 NSCLC
HOP-92 NSCLC = system: HOP-92 NSCLC
HS 578T breast = system: HS 578T breast
HT29 colon = system: HT29 colon
IGROV1 ovarian = system: IGROV1 ovarian
K-562 leukemia = system: K-562 leukemia
KM12 colon = system: KM12 colon
LOX IMVI melanoma = system: LOX IMVI melanoma
M14 melanoma = system: M14 melanoma
MALME-3M melanoma = system: MALME-3M melanoma
MCF7 breast = system: MCF7 breast
MDA-MB-231 breast = system: MDA-MB-231 breast
MDA-MB-435 = system: MDA-MB-435
MDA-N = system: MDA-N
MOLT-4 leukemia = system: MOLT-4 leukemia
NCI-H226 lung = system: NCI-H226 lung
NCI-H23 lung = system: NCI-H23 lung
NCI-H460 lung = system: NCI-H460 lung
NCI-H522 lung = system: NCI-H522 lung
NCI/ADR-RES ovarian = system: NCI/ADR-RES ovarian
OVCAR-3 ovarian = system: OVCAR-3 ovarian
OVCAR-4 ovarian = system: OVCAR-4 ovarian
OVCAR-5 ovarian = system: OVCAR-5 ovarian
OVCAR-8 ovarian = system: OVCAR-8 ovarian
PC-3 prostate = system: PC-3 prostate
RPMI-8226 leukemia = system: RPMI-8226 leukemia
RXF 393 renal = system: RXF 393 renal
SF-268 CNS = system: SF-268 CNS
SF-295 CNS = system: SF-295 CNS
SF-539 CNS = system: SF-539 CNS
SK-MEL-2 melanoma = system: SK-MEL-2 melanoma
SK-MEL-28 melanoma = system: SK-MEL-28 melanoma
SK-MEL-5 melanoma = system: SK-MEL-5 melanoma
SK-OV-3 ovarian = system: SK-OV-3 ovarian
SN12C renal = system: SN12C renal
SNB-19 CNS = system: SNB-19 CNS
SNB-75 CNS = system: SNB-75 CNS
SR leukemia = system: SR leukemia
SW-620 colon = system: SW-620 colon
T-47D breast = system: T-47D breast
TK-10 renal = system: TK-10 renal
U251 CNS = system: U251 CNS
UACC-62 melanoma = system: UACC-62 melanoma
UO-31 renal = system: UO-31 renal
UACC-257 melanoma = system: UACC-257 melanoma

`COP(=O)(OC)/C(=C/c1cn(C(c2ccccc2)(c2ccccc2)c2ccccc2)cn1)NC=O` was tested, and the TGI (786-0 renal) was greater than 100 µM, the TGI (A498 renal) was 32 µM and the TGI (A549 NSCLC) was greater than 100 µM. The TGI (ACHN renal) was 24.6 µM, the TGI (BT-549 breast) was 30.6 µM and the TGI (CAKI-1 renal) was 62.3 µM. It also gave a TGI (CCRF-CEM leukemia) greater than 100 µM, a TGI (COLO 205 colon) of 32.9 µM and a TGI (DU-145 prostate) greater than 100 µM. It also gave a TGI (EKVX NSCLC) of 56.9 µM, a TGI (HCC-2998 colon) of 33.3 µM and a TGI (HCT-116 colon) of 32.8 µM. The TGI (HCT-15 colon) was 99.4 µM, the TGI (HL-60(TB) leukemia) was greater than 100 µM and the TGI (HOP-62 NSCLC) was 35.9 µM. For the same compound, the TGI (HOP-92 NSCLC) was 68 µM, the TGI (HS 578T breast) was 43.2 µM and the TGI (HT29 colon) was 33.8 µM. It also gave a TGI (IGROV1 ovarian) of 44.1 µM, a TGI (K-562 leukemia) greater than 100 µM and a TGI (KM12 colon) greater than 100 µM. The TGI (LOX IMVI melanoma) was 32.5 µM, the TGI (M14 melanoma) was 34.4 µM and the TGI (MALME-3M melanoma) was 38.5 µM. The TGI (MCF7 breast) was 33.7 µM, the TGI (MDA-MB-231 breast) was 33.5 µM and the TGI (MDA-MB-435) was 40.1 µM. It also gave a TGI (MDA-N) of 51.4 µM, a TGI (MOLT-4 leukemia) greater than 100 µM and a TGI (NCI-H226 lung) of 98.9 µM. The TGI (NCI-H23 lung) was 41.2 µM, the TGI (NCI-H460 lung) was 34.9 µM and the TGI (NCI-H522 lung) was 41.2 µM. For the same compound, the TGI (NCI/ADR-RES ovarian) was greater than 100 µM, the TGI (OVCAR-3 ovarian) was 30.2 µM and the TGI (OVCAR-4 ovarian) was 51.9 µM. For the same compound, the TGI (OVCAR-5 ovarian) was 38.2 µM, the TGI (OVCAR-8 ovarian) was 60.4 µM and the TGI (PC-3 prostate) was greater than 100 µM. It also gave a TGI (RPMI-8226 leukemia) greater than 100 µM, a TGI (RXF 393 renal) of 35.1 µM and a TGI (SF-268 CNS) of 33.1 µM. It also gave a TGI (SF-295 CNS) of 30.5 µM, a TGI (SF-539 CNS) of 28.3 µM and a TGI (SK-MEL-2 melanoma) of 34.4 µM. The TGI (SK-MEL-28 melanoma) was 93.6 µM, the TGI (SK-MEL-5 melanoma) was 27.5 µM and the TGI (SK-OV-3 ovarian) was 90.8 µM. It also gave a TGI (SN12C renal) of 46.4 µM, a TGI (SNB-19 CNS) greater than 100 µM and a TGI (SNB-75 CNS) of 23.3 µM. It also gave a TGI (SR leukemia) greater than 100 µM, a TGI (SW-620 colon) of 78.1 µM and a TGI (T-47D breast) greater than 100 µM. For the same compound, the TGI (TK-10 renal) was 46.3 µM, the TGI (U251 CNS) was 35.4 µM and the TGI (UACC-62 melanoma) was 41.3 µM. For the same compound, the TGI (UO-31 renal) was greater than 100 µM.
`Nc1c2c(nc3ccccc13)-c1ccccc1NCCC2` was tested, and the TGI (786-0 renal) was 32.4 µM, the TGI (A498 renal) was 55.5 µM and the TGI (A549 NSCLC) was greater than 100 µM. The TGI (ACHN renal) was greater than 100 µM, the TGI (BT-549 breast) was greater than 100 µM and the TGI (CAKI-1 renal) was greater than 100 µM. For the same compound, the TGI (CCRF-CEM leukemia) was 81.3 µM, the TGI (COLO 205 colon) was 35.2 µM and the TGI (DU-145 prostate) was greater than 100 µM. The TGI (EKVX NSCLC) was greater than 100 µM, the TGI (HCC-2998 colon) was 27 µM and the TGI (HCT-116 colon) was 94.3 µM. For the same compound, the TGI (HCT-15 colon) was greater than 100 µM, the TGI (HL-60(TB) leukemia) was 47.5 µM and the TGI (HOP-62 NSCLC) was 54.2 µM. It also gave a TGI (HOP-92 NSCLC) of 65.6 µM, a TGI (HS 578T breast) greater than 100 µM and a TGI (HT29 colon) of 83.9 µM. For the same compound, the TGI (IGROV1 ovarian) was greater than 100 µM, the TGI (K-562 leukemia) was greater than 100 µM and the TGI (KM12 colon) was greater than 100 µM. It also gave a TGI (LOX IMVI melanoma) of 35.5 µM, a TGI (M14 melanoma) of 33.3 µM and a TGI (MALME-3M melanoma) of 32.9 µM. For the same compound, the TGI (MCF7 breast) was greater than 100 µM, the TGI (MDA-MB-231 breast) was 53.5 µM and the TGI (MDA-MB-435) was 58.2 µM. The TGI (MDA-N) was 39 µM, the TGI (MOLT-4 leukemia) was greater than 100 µM and the TGI (NCI-H226 lung) was greater than 100 µM. For the same compound, the TGI (NCI-H23 lung) was greater than 100 µM, the TGI (NCI-H460 lung) was 38 µM and the TGI (NCI-H522 lung) was 82.6 µM. The TGI (NCI/ADR-RES ovarian) was greater than 100 µM, the TGI (OVCAR-3 ovarian) was greater than 100 µM and the TGI (OVCAR-4 ovarian) was greater than 100 µM. For the same compound, the TGI (OVCAR-5 ovarian) was greater than 100 µM, the TGI (OVCAR-8 ovarian) was greater than 100 µM and the TGI (PC-3 prostate) was greater than 100 µM. The TGI (RPMI-8226 leukemia) was 58.5 µM, the TGI (RXF 393 renal) was 33.2 µM and the TGI (SF-268 CNS) was greater than 100 µM. For the same compound, the TGI (SF-295 CNS) was 50.8 µM, the TGI (SF-539 CNS) was 43.9 µM and the TGI (SK-MEL-2 melanoma) was 37.1 µM. The TGI (SK-MEL-28 melanoma) was 51.1 µM, the TGI (SK-MEL-5 melanoma) was 28.6 µM and the TGI (SK-OV-3 ovarian) was greater than 100 µM. The TGI (SN12C renal) was greater than 100 µM, the TGI (SNB-19 CNS) was greater than 100 µM and the TGI (SNB-75 CNS) was greater than 100 µM. It also gave a TGI (SR leukemia) greater than 100 µM, a TGI (SW-620 colon) greater than 100 µM and a TGI (T-47D breast) of 77.9 µM. The TGI (TK-10 renal) was 49.6 µM, the TGI (U251 CNS) was greater than 100 µM and the TGI (UACC-257 melanoma) was 28.3 µM. The TGI (UACC-62 melanoma) was 41.2 µM and the TGI (UO-31 renal) was 88.3 µM.
Compound `CC(C)(C)OC(=O)CN1CCN(CC(=O)N2CCN(C(=O)OCc3ccccc3)CC2)CCN(CC(=O)OC(C)(C)C)CCN(CC(=O)N2CCN(C(=O)OCc3ccccc3)CC2)CC1` has a TGI (786-0 renal) of 7.42 µM, a TGI (A498 renal) of 35.7 µM and a TGI (A549 NSCLC) of 16.3 µM. For the same compound, the TGI (ACHN renal) was 22.3 µM, the TGI (BT-549 breast) was 14.5 µM and the TGI (CAKI-1 renal) was 23.4 µM. The TGI (CCRF-CEM leukemia) was 3.51 µM, the TGI (COLO 205 colon) was 2.64 µM and the TGI (DU-145 prostate) was 20.1 µM. The TGI (EKVX NSCLC) was 34.3 µM, the TGI (HCC-2998 colon) was 6.55 µM and the TGI (HCT-116 colon) was greater than 38 µM. For the same compound, the TGI (HCT-15 colon) was 19.1 µM, the TGI (HL-60(TB) leukemia) was 0.525 µM and the TGI (HOP-62 NSCLC) was 16.4 µM. The TGI (HOP-92 NSCLC) was 11.4 µM, the TGI (HS 578T breast) was 5.67 µM and the TGI (HT29 colon) was 1.37 µM. It also gave a TGI (IGROV1 ovarian) of 2.65 µM, a TGI (KM12 colon) of 3.06 µM and a TGI (LOX IMVI melanoma) of 2.93 µM. For the same compound, the TGI (M14 melanoma) was 14.3 µM, the TGI (MALME-3M melanoma) was 7.94 µM and the TGI (MCF7 breast) was 14.9 µM. The TGI (MDA-MB-231 breast) was 5.01 µM, the TGI (MDA-MB-435) was 7.36 µM and the TGI (MDA-N) was 7.65 µM. The TGI (MOLT-4 leukemia) was 5.05 µM, the TGI (NCI-H226 lung) was 22.8 µM and the TGI (NCI-H23 lung) was 12.5 µM. For the same compound, the TGI (NCI-H460 lung) was 6.98 µM, the TGI (NCI-H522 lung) was 2.87 µM and the TGI (NCI/ADR-RES ovarian) was 34.4 µM. For the same compound, the TGI (OVCAR-3 ovarian) was 13.1 µM, the TGI (OVCAR-4 ovarian) was 16.2 µM and the TGI (OVCAR-5 ovarian) was 25.8 µM. The TGI (OVCAR-8 ovarian) was 16.8 µM, the TGI (PC-3 prostate) was 12.5 µM and the TGI (RPMI-8226 leukemia) was 2.91 µM. The TGI (RXF 393 renal) was 17 µM, the TGI (SF-268 CNS) was 7.34 µM and the TGI (SF-295 CNS) was 13.8 µM. The TGI (SF-539 CNS) was 6.85 µM, the TGI (SK-MEL-2 melanoma) was 5.54 µM and the TGI (SK-MEL-28 melanoma) was 16.2 µM. For the same compound, the TGI (SK-MEL-5 melanoma) was 3.92 µM, the TGI (SK-OV-3 ovarian) was 16.5 µM and the TGI (SN12C renal) was 16.3 µM. The TGI (SNB-19 CNS) was 14.6 µM, the TGI (SNB-75 CNS) was 4.75 µM and the TGI (SR leukemia) was 1.75 µM. For the same compound, the TGI (SW-620 colon) was 8.5 µM, the TGI (T-47D breast) was 18.8 µM and the TGI (TK-10 renal) was 15.9 µM. For the same compound, the TGI (U251 CNS) was 9.51 µM, the TGI (UACC-257 melanoma) was 5.92 µM and the TGI (UACC-62 melanoma) was 7.59 µM. The TGI (UO-31 renal) was 25.5 µM.
